Reference: patent publication EP4308247B1, “USE OF MONO[…] TREATING SIGNS OF SKIN AGING” (Unilever IP Holdings B.V., priority 2021, dated 2022)

Test system: primary adult human dermal fibroblasts (HDFs)
Assay: High-throughput compound screen for senolytic activity (cell viability by Hoechst 33342 / SYTOX Green imaging) in early proliferating (EP) and deeply senescent (DS) fibroblasts
Assay type: cell-based
Parameters: key to hit classification based on EP and DS cell viability: senolytic: EP cell viability above the 89% EP threshold and DS cell viability below the 87% DS threshold for at least one concentration of the three serial concentrations; prolifolytic: decreased EP cell viability below the 89% EP threshold but did not decrease DS cell viability below 87%; cytotoxic: decreased both EP and DS cell viability below their respective thresholds; non-toxic: maintained both EP and DS viability above their respective thresholds
From the text: A high-throughput compound screen of 1240 test compounds including inter alia monostearin (IUPAC: 1,3-dihydroxypropan-2-yl octadecanoate 2,3-dihydroxypropyl octadecanoate) was optimised in primary adult human dermal fibroblasts (HDFs). For this, a model of replicative senescence in HDFs was established. In brief, early proliferating (EP) fibroblasts at passage 11 were serially passaged until they reached replicative senescence at passage 29.
Actinomycin D, a drug widely reported to induce apoptosis in multiple cell types, was optimised for use as a positive 'senolytic control' for the high-throughput compound screen in EP (0.02µM) and DS (0.2µM) HDFs.
In order to perform the high-throughput screen of the test compounds a thorough validation process of the assay was undertaken prior to experimental screening. For both EP and DS HDFs, the following steps were optimised: optimisation of cell seeding densities in 384-well plate format; validation and optimisation of Actinomycin D positive and DMSO-vehicle negative controls; optimisation of high-throughput image acquisition and high content analysis of Hoechst 33342 (ThermoFisher, UK) in combination with SYTOX Green (ThermoFisher, UK) using the INCell 2200 microscope (GE, UK) for cell death phenotypic read-outs; optimisation of liquid handling system protocols; plate uniformity assessments; and a "dry run" of all components in the assay. […]

## CCCCCCCCCCCCCCCCCC(=O)OCC(O)CO (centres unmarked) [monostearin, 1,3-dihydroxypropan-2-yl octadecanoate 2,3-dihydroxypropyl octadecanoate]
DS versus EP HDFs, conclusion drawn from the screen
  cytotoxicity for senescent cells, compared to growing cells: preferential cytotoxicity for senescent cells
EP and DS HDFs, three serial concentrations, 48 hours incubation, read-out five days post-compound addition, class met for at least one concentration
  hit classification based on EP and DS cell viability: senolytic
